According to patent US9090624B2, “Aromatic bycyclic derivatives as CXCR4 receptor modulators” (Allergan, Inc., priority 2011, dated 2015):

Target: T1, human CXCR4 receptor (Homo sapiens, UniProt P61073)
T1 construct: expressed in transfected cells
Assay: Measurement of intracellular Ca+2 responses (FLIPR), antagonism of the SDF-1α response
Type: cell-based
Details: HEK-Gqi5 cells stably expressing human CXCR4; for IC50: antagonism of SDF-1α at 1.9 nM (EC65), Fluo-4 calcium, FLIPR; for inhibition: percent antagonism of SDF-1α at 1.9 nM (EC65), test drug 2.44 nM to 40,000 nM
Description: Measurement of Intracellular Ca^+2 Responses for CXCR4 Compounds
HEK-Gqi5 cells stably expressing the human CXCR4 receptor were utilized for these studies. The growth media for the CXCR4 receptor expressing cell line was DMEM high glucose medium supplemented with 10% fetal bovine serum (FBS), 1% antibiotic-antimycotic, 50 ug/ml hygromycin B, and 400 μg/ml geneticin. Ten thousand cells per well were plated into 384-well poly-D-lysine coated plates one day prior to use. On the day of the experiment, the cells were washed twice with Hank's Balanced Salt Solution supplemented with 20 mM hepes (HBSS/hepes buffer). The cells were then dye loaded with 2 uM Fluo-4 diluted in the HBSS/Hepes buffer and incubated at 37° C. for 40 minutes. Extracellular dye was removed by washing the cell plates four times prior to placing the plates in the FLIPR (Fluorometric Imaging Plate Reader, Molecular Devices). Ligands were diluted in HBSS/Hepes buffer and prepared in 384-well microplates. The positive control, stromal-cell derived factor-1 (SDF-1α), was diluted in HBSS/Hepes buffer with 4 mg/ml fatty acid free bovine serum albumin. Two drug additions were made by the FLIPR. The first drug addition was the test drug in concentrations ranging from 2.44 nM to 40,000 nM. After this addition, fluorescent measurements were taken. Any calcium release in response to this drug addition represents agonist activity of the compounds. The second drug addition was SDF-1α at a final concentration of 1.9 nM (EC65). Fluorescence measurements were also taken after this second drug addition and were used to determine the ability of the test compounds to antagonize the SDF-1α response. Results were expressed as EC50 and efficacy values, as well as IC50 and percent antagonism values. As controls, SDF-1α (CXCR4 agonist) and AMD3100 (CXCR4 antagonist) dose-response curves were also determined in each study.

T1 sequence (P61073 whole entry): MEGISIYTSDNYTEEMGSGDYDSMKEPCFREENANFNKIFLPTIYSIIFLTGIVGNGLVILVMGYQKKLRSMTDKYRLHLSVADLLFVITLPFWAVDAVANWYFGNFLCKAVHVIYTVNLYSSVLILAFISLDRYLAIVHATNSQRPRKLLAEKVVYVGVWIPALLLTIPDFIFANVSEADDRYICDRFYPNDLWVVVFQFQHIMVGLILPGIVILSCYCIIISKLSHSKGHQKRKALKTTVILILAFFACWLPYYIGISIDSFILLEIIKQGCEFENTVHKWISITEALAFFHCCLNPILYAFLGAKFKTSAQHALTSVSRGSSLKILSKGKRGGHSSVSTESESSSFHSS

Row | SMILES | IC50 [µM] | inhibition [%]
1 | COc1cccc(N(C)C)c1CN1CCC(Nc2nc(NCCN(C)C)nc3c2CCC3)CC1 [Compound 1, N^2-[2-(Dimethylamino)ethyl]-N^4-{1-[2-(dimethylamino)-6-methoxybenzyl]piperidin-4-yl}-6,7-dihydro-5H-cyclopenta[d]pyrimidine-2,4-diamine] | 2.92 | 93
2 | CN(C)CCNc1nc(NC2CCN(Cc3c(OCCN(C)C)cccc3N(C)C)CC2)c2sccc2n1 [Compound 2] | 0.11 | 95
